This is an account of results in patent US8470771B2, “Method and medicament for inhibiting the infection of influenza virus” (priority 2007, dated 2013).

Marks after values point to notes of the source that are not given here.

Usually IC50 stands for the concentration at which inhibition is half-maximal. A lower IC50 goes with greater potency.

Assay [1] deals with WSN virus (human influenza virus H1N1). The conditions noted are these: for IC50: WSN virus (human influenza virus); for Inhibitory rates (%) of WSN: WSN virus (human influenza virus, 100 μM).
In assay [2] the test system is JX virus (human influenza virus H3N2). The settings on record: for IC50: JX virus (human influenza virus); for Inhibitory rates (%) of JX: JX virus (human influenza virus, 200 μM).
The test system of assay [3] is QH-WSN virus (avian influenza virus H5N1). The conditions noted are these: for IC50: QH-WSN virus (avian influenza virus); for Inhibitory rates (%) of QH-WSN: QH-WSN virus (avian influenza virus, 200 μM).
A further assay has as its system influenza virus. Type of assay: cell-based.
Assay [4] deals with 3 subtypes of virus i.e. H5N1, H6N1 and H9N2. The conditions noted are these: read-out: 50% effect concentration (EC50); cited from earlier work.

As to `CC[C@H](C)[C@H](NC(=O)[C@H](CCCCN)NC(=O)[C@H](CCC(N)=O)NC(=O)[C@@H](NC(=O)[C@H](CO)NC(=O)[C@H](CCC(=O)O)NC(=O)[C@@H](N)CCCCN)[C@@H](C)O)C(=O)N[C@H](C(=O)N[C@@H](CC(=O)O)C(=O)NCC(=O)N[C@H](C(=O)N[C@H](C(=O)N[C@@H](CC(N)=O)C(=O)N[C@@H](CCCCN)C(=O)N[C@H](C(=O)N[C@@H](CC(N)=O)C(=O)N[C@@H](CO)C(=O)N[C@H](C(=O)N[C@H](C(=O)N[C@@H](CC(=O)O)C(=O)N[C@@H](CCCCN)C(=O)O)[C@@H](C)CC)[C@@H](C)CC)C(C)C)[C@@H](C)O)C(C)C)[C@@H](C)CC` [HR1-1], the IC50 in assay [1] came out at 29.3 ± 5.7 µM; in assay [2], 38.2 ± 7.8 µM; in assay [3], 32.7 ± 6.5 µM.

As to `CC[C@H](C)[C@H](NC(=O)[C@H](C)NC(=O)[C@H](CCCCN)NC(=O)[C@H](CCC(N)=O)NC(=O)[C@@H](NC(=O)[C@H](CO)NC(=O)[C@H](CCC(=O)O)NC(=O)[C@@H](N)CCCCN)[C@@H](C)O)C(=O)N[C@@H](CC(=O)O)C(=O)NCC(=O)N[C@H](C(=O)N[C@H](C(=O)N[C@@H](C)C(=O)N[C@@H](C)C(=O)N[C@@H](C)C(=O)N[C@@H](C)C(=O)N[C@@H](CC(N)=O)C(=O)N[C@@H](CCCCN)C(=O)N[C@H](C(=O)N[C@@H](CC(N)=O)C(=O)N[C@@H](CO)C(=O)N[C@H](C(=O)N[C@H](C(=O)N[C@@H](CC(=O)O)C(=O)N[C@@H](CCCCN)C(=O)O)[C@@H](C)CC)[C@@H](C)CC)C(C)C)[C@@H](C)O)C(C)C` [HR1-2], the results for the IC50 in assay [1], in assay [2] and in assay [3] were 110 ± 28.2 µM, 112 ± 19.5 µM and 104 ± 28.6 µM, respectively.

For `CSCC[C@H](NC(=O)[C@H](CC(C)C)NC(=O)[C@@H](NC(=O)[C@H](CC(C)C)NC(=O)[C@H](CC(C)C)NC(=O)[C@H](CCC(=O)O)NC(=O)[C@H](C)NC(=O)[C@@H](N)CC(N)=O)C(C)C)C(=O)N[C@@H](CCC(=O)O)C(=O)N[C@@H](CC(N)=O)C(=O)N[C@@H](CCC(=O)O)C(=O)N[C@@H](CCCNC(=N)N)C(=O)N[C@H](C(=O)N[C@@H](CC(C)C)C(=O)N[C@@H](CC(=O)O)C(=O)N[C@@H](Cc1ccccc1)C(=O)N[C@@H](Cc1c[nH]cn1)C(=O)N[C@@H](CC(=O)O)C(=O)N[C@@H](CO)C(=O)N[C@@H](CC(N)=O)C(=O)N[C@H](C(=O)N[C@@H](CCCCN)C(=O)N[C@@H](CC(N)=O)C(=O)O)C(C)C)[C@@H](C)O` [HR2B], the “Inhibitory rates (%) of WSN” value in assay [1] was 43.0** %. Also, the “Inhibitory rates (%) of JX” value in assay [2] is 15.2* %. For the same molecule, in assay [3], the “Inhibitory rates (%) of QH-WSN” value is given as 63.8* %.

On to `CC(C)C[C@H](NC(=O)[C@H](CCCNC(=N)N)NC(=O)[C@@H](NC(=O)[C@H](CCCCN)NC(=O)[C@H](CC(=O)O)NC(=O)[C@H](Cc1ccc(O)cc1)NC(=O)[C@H](CC(C)C)NC(=O)[C@H](CC(N)=O)NC(=O)[C@H](CCCCN)NC(=O)[C@@H](NC(=O)[C@H](CC(N)=O)NC(=O)[C@H](CO)NC(=O)[C@H](CC(=O)O)NC(=O)[C@H](Cc1c[nH]cn1)NC(=O)[C@@H](N)Cc1ccccc1)C(C)C)C(C)C)C(=O)N[C@@H](CCC(N)=O)C(=O)O` [HR2C], for which the “Inhibitory rates (%) of WSN” value in assay [1] is listed as 29.6** %. Besides, in assay [2], the “Inhibitory rates (%) of JX” value is listed as 17.1* %. The “Inhibitory rates (%) of QH-WSN” value in assay [3] is given as 53.1* %.

With KLPDDFMGCV, the “inhibition of the infection of influenza virus” value in the assay with influenza virus was “did not inhibit the infection of influenza virus”.

`CC(=O)N[C@H]1[C@H]([C@H](O)[C@H](O)CO)OC(C(=O)O)=C[C@@H]1N=C(N)N` [Zanamivir]: the EC50 in assay [4] is 8.5 to 14 µM.

For `CC[C@H](C)[C@H](NC(=O)[C@H](CCCNC(=N)N)NC(=O)[C@@H](N)CCCNC(=N)N)C(=O)N[C@@H](CCC(=O)O)C(=O)N[C@@H](CC(N)=O)C(=O)N[C@@H](CC(C)C)C(=O)N[C@@H](CC(N)=O)C(=O)N[C@@H](CCCCN)C(=O)N[C@@H](CCCCN)C(=O)N[C@@H](CCSC)C(=O)N[C@@H](CCC(=O)O)C(=O)N[C@@H](CC(=O)O)C(=O)NCC(=O)N[C@@H](Cc1ccccc1)C(=O)N[C@@H](CC(C)C)C(=O)N[C@@H](CC(=O)O)C(=O)N[C@H](C(=O)N[C@@H](Cc1c[nH]c2ccccc12)C(=O)N[C@H](C(=O)N[C@@H](Cc1ccc(O)cc1)C(=O)O)[C@@H](C)O)C(C)C` [HR2A], the “Inhibitory rates (%) of WSN” value in assay [1] was 42.0** %. Further, the “Inhibitory rates (%) of JX” value in assay [2] was 51.4* %. The “Inhibitory rates (%) of QH-WSN” value in assay [3] is on record as 56.9* %.
